Legend:
[1] = target: T1, Nuclear receptor ROR-alpha (Homo sapiens, UniProt P35398); assay: Inverse agonist activity at human ROR-alpha1 expressed in HEK293 cells after 16 hrs by luciferase reporter gene assay; format: cell-based
T1 sequence (P35398 whole entry): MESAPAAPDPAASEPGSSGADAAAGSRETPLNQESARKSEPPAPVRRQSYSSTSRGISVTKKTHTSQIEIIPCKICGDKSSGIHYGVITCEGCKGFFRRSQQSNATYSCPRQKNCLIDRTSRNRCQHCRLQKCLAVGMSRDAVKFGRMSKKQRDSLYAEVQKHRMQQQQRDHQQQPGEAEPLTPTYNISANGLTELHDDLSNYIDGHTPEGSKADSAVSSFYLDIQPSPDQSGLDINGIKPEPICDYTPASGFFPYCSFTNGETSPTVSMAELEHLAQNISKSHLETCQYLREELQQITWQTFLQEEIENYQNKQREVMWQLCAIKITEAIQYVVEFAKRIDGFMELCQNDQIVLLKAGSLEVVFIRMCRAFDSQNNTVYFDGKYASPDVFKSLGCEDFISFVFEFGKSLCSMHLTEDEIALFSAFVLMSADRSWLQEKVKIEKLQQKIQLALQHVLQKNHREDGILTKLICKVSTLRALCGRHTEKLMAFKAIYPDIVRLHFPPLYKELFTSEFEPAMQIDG

[2] = target: T2, Nuclear receptor ROR-gamma (Homo sapiens, UniProt P51449); assay: Inverse agonist activity at human ROR-gamma1 expressed in HEK293 cells after 16 hrs by luciferase reporter gene assay; format: cell-based
T2 sequence (P51449 whole entry): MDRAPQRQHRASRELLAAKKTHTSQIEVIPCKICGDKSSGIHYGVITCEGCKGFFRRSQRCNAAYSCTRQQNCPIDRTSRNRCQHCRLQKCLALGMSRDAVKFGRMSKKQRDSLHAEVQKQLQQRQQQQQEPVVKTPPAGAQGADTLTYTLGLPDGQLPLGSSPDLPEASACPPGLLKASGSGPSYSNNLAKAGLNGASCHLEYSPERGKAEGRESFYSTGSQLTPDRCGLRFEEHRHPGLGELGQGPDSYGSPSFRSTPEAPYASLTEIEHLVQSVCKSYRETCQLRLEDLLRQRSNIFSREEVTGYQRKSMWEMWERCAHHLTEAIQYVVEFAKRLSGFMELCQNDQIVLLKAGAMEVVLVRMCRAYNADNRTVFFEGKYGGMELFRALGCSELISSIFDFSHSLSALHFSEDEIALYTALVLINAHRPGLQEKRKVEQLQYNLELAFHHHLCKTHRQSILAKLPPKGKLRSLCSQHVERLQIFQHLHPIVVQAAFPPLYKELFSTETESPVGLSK

[3] = target: T3, Nuclear receptor ROR-beta (Homo sapiens, UniProt Q92753); assay: Inverse agonist activity at human ROR-beta expressed in HEK293 cells after 16 hrs by luciferase reporter gene assay; format: cell-based
T3 sequence (Q92753 whole entry): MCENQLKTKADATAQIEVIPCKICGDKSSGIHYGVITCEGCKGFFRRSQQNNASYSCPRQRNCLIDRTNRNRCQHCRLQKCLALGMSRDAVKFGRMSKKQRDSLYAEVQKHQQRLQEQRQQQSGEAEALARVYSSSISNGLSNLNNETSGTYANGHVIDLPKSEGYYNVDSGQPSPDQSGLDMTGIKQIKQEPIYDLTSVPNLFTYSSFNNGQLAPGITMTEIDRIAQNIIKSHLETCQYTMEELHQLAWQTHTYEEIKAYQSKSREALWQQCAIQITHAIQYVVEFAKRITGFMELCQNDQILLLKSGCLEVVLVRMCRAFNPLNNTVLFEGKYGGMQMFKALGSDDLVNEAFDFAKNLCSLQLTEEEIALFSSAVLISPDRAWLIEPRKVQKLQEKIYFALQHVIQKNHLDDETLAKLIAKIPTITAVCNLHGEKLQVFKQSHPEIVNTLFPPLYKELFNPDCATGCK

HEK293 = assay: Cytotoxicity against HEK293 cells; format: cell-based; settings: human
[4] = target: T4, Oxysterols receptor LXR-alpha (Homo sapiens, UniProt Q13133); assay: Antagonist activity at human LXR-alpha expressed in HEK293 cells assessed as inhibition of T0901317-induced effect after 16 hrs by luciferase reporter gene assay; format: cell-based
T4 sequence (Q13133 whole entry): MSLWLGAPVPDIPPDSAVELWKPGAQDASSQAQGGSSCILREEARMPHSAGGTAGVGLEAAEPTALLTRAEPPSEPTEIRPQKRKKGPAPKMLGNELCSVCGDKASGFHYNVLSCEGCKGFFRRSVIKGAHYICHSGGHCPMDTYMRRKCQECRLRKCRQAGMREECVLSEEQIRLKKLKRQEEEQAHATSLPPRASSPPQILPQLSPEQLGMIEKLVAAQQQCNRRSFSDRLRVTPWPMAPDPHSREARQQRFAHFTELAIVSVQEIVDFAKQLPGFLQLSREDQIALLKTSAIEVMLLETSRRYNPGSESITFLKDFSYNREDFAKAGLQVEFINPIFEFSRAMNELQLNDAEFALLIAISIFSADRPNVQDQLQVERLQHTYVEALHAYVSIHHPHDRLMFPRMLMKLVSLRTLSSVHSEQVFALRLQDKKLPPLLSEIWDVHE

[5] = target: T5, Oxysterols receptor LXR-beta (Homo sapiens, UniProt P55055); assay: Agonist activity at human LXR-beta expressed in HEK293 cells after 16 hrs by luciferase reporter gene assay
T5 sequence (P55055 whole entry): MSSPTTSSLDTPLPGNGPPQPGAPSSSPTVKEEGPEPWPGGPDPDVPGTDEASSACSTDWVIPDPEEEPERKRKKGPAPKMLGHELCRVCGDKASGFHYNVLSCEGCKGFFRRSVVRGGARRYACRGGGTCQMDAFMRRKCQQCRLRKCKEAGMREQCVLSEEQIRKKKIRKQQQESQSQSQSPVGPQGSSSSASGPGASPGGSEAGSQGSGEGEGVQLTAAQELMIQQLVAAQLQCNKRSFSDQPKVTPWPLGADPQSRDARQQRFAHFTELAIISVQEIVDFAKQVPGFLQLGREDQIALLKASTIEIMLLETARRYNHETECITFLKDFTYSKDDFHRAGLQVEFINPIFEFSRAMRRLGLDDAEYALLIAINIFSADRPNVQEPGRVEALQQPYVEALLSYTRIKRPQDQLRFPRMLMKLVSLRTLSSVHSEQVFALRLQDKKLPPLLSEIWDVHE

[6] = target: T4, Oxysterols receptor LXR-alpha; assay: Agonist activity at human LXR-alpha expressed in HEK293 cells after 16 hrs by luciferase reporter gene assay
[7] = target: T5, Oxysterols receptor LXR-beta; assay: Antagonist activity at human LXR-beta expressed in HEK293 cells assessed as inhibition of T0901317-induced effect after 16 hrs by luciferase reporter gene assay; format: cell-based
[8] = target: T5, Oxysterols receptor LXR-beta; assay: Antagonist activity at human LXR-beta expressed in HEK293 cells after 16 hrs by luciferase reporter gene assay; format: cell-based
[9] = target: T4, Oxysterols receptor LXR-alpha; assay: Antagonist activity at human LXR-alpha expressed in HEK293 cells after 16 hrs by luciferase reporter gene assay; format: cell-based

| Compound | IC50 ([1]; read-out: IC50) | IC50 ([2]; read-out: IC50) | IC50 ([3]; read-out: IC50) | other results |
| --- | --- | --- | --- | --- |
| CCCCn1c(=O)c2ccccc2c2cc(CO)ccc21 | > 20 µM | > 20 µM | > 20 µM | – |
| CCCCn1c(=O)c2ccccc2c2cc(C(C)(C)C)ccc21 | 11.8 µM | 10.4 µM | 12.8 µM | – |
| CCCCn1c(=O)c2ccccc2c2cc(C(O)(C(F)(F)F)C(F)(F)F)ccc21 | 9.8 µM | 3.9 µM | 6.5 µM | – |
| CCCCCCn1c(=O)c2ccccc2c2cc(C(O)(C(F)(F)F)C(F)(F)F)ccc21 | 7.6 µM | 4.7 µM | 5.4 µM | – |
| CCCCn1c(=O)c2ccccc2c2cc(CC)ccc21 | 9 µM | 9.2 µM | 7.9 µM | – |
| CCCCn1c(=O)c2ccccc2c2ccccc21 | 10.2 µM | 14.5 µM | 13.4 µM | – |
| CCCCn1c(=O)c2ccccc2c2cc(C)ccc21 | 17.6 µM | 16.8 µM | 17.1 µM | – |
| CCCCCCCCCn1c(=O)c2ccccc2c2cc(C(O)(C(F)(F)F)C(F)(F)F)ccc21 | > 20 µM | > 20 µM | > 20 µM | – |
| CCn1c(=O)c2ccccc2c2cc(C(O)(C(F)(F)F)C(F)(F)F)ccc21 | > 20 µM | > 20 µM | > 20 µM | – |
| CCCCn1c(=O)c2c(OC)cccc2c2cc(C(O)(C(F)(F)F)C(F)(F)F)ccc21 | – | – | – | Activity (HEK293): Toxic |
| CCCCn1c(=O)c2ccccc2c2cc(C(O)(C(F)(F)F)C(F)(F)F)c(OC)cc21 | 7.8 µM | 9.2 µM | 10.9 µM | – |
| CCCCn1c(=O)c2ccccc2c2cc(C(O)(C(F)(F)F)C(F)(F)F)cc(OC)c21 | > 10 µM | > 10 µM | > 10 µM | – |
| CCCCn1c(=O)c2cc(OC)ccc2c2cc(C(O)(C(F)(F)F)C(F)(F)F)ccc21 | – | – | – | Activity (HEK293): Toxic |
| CCCCn1c(=O)c2ccc(OC)cc2c2cc(C(O)(C(F)(F)F)C(F)(F)F)ccc21 | 5.3 µM | 1.1 µM | 7.7 µM | – |
| CCCCn1c(=O)c2cccc(OC)c2c2cc(C(O)(C(F)(F)F)C(F)(F)F)ccc21 | 9.1 µM | 5.7 µM | 7.5 µM | – |
| Cn1c(=O)c2ccccc2c2cc(C(O)(C(F)(F)F)C(F)(F)F)ccc21 | > 20 µM | > 20 µM | > 20 µM | – |
| CC(=O)Nc1nc(C)c(S(=O)(=O)Nc2ccc(C(O)(C(F)(F)F)C(F)(F)F)cc2)s1 | – | – | – | IC50 ([4]; hek293): Not Active; EC50 [5]: Not Active; EC50 [6]: Not Active; IC50 ([7]; hek293): Not Active |
| O=c1[nH]c2ccc(C(O)(C(F)(F)F)C(F)(F)F)cc2c2ccccc12 | > 20 µM | > 20 µM | > 20 µM | – |
| CCCn1c(=O)c2ccccc2c2cc(C(O)(C(F)(F)F)C(F)(F)F)ccc21 | 10.8 µM | 4.2 µM | 8.2 µM | – |
| CCCCCCCCCCCCc1ccc2c(c1)c1ccccc1c(=O)n2CCCC | – | – | – | IC50 ([1]; hek293): Not Active; IC50 ([2]; hek293): Not Active; IC50 ([3]; hek293): Not Active |
| CCCCn1c(=O)c2ccc(Cl)cc2c2cc(C(O)(C(F)(F)F)C(F)(F)F)ccc21 | – | – | – | IC50 ([4]; read-out: IC50): > 3 µM; EC50 [5]: Not Active; EC50 [6]: Not Active; IC50 ([7]; read-out: IC50): 0.68 µM |
| O=S(=O)(c1ccccc1)N(CC(F)(F)F)c1ccc(C(O)(C(F)(F)F)C(F)(F)F)cc1 [T091317] | – | – | – | IC50 [8]: Not Active; IC50 ([3]; hek293): Not Active; IC50 [9]: Not Active |
